Data taken from publication PMC5247395 (EJNMMI Research, 2017).

Experiments:
[1] = tested on: PC-3 PIP/flu tumor-bearing mice; experiment: Biodistribution in PC-3 PIP/flu tumor-bearing mice; details: i.v.; for PC-3 flu Tumor: PSMA^neg xenograft; for PC-3 PIP Tumor: PSMA^pos xenograft
Description: In vivo experiments were approved by the local veterinarian department and conducted in accordance with the Swiss law of animal protection. All mice were obtained from Charles River Laboratories (Sulzfeld, Germany), at the age of 5–6 weeks. Female, athymic nude Balb/c mice were subcutaneously inoculated with PC-3 PIP cells (6 × 10^6 cells in 100 μL Hank’s balanced salt solution (HBSS) with Ca^2+/Mg^2+) on the right shoulder and with PC-3 flu cells (5 × 10^6 cells in 100 μL HBSS with Ca^2+/Mg^2+) on the left shoulder 2 weeks before the performance of the experiments.
Mice were sacrificed at different time points post injection (p.i.) of the radioligands. Selected tissues and organs were collected, weighed and measured using a γ-counter. The results were decay-corrected and listed as a percentage of the injected activity per gram of tissue mass (% IA/g).

[2] = n-octanol/PBS distribution coefficient (shake-flask); type: physicochemical; details: n-octanol/PBS pH 7.4, shake-flask
Description: The distribution coefficients (logD values) of the radioligands were determined by a shake-flask method using liquid-liquid extraction followed by phase separation, as previously reported (Additional file 1). In brief, the PSMA ligands were labeled at a specific activity of 5 MBq/nmol. […] The vials were vortexed vigorously for 1 min and then centrifuged for 6 min for phase separation. The concentration of radioactivity in a defined volume of each layer was measured in a γ-counter (Perkin Elmer, Wallac Wizard 1480). The distribution coefficients were expressed as the logarithm of the ratio of counts per minute (cpm) measured in the n-octanol phase to the cpm measure in the PBS phase. The values are reported as the average of at least three independent measurements (± standard deviation, SD), each performed with five replicates. Data were analyzed for significance using a one-way ANOVA test (GraphPad Prism software, version 7). A p value of <0.05 was considered as statistically significant.

[3] = target: T1, PSMA (Homo sapiens, UniProt Q04609); experiment: Saturation binding assay on PC-3 PIP cells (PSMA affinity, KD); details: for Kd: 30 min at 4 °C, saturation binding; for Relative PSMA-binding affinity: inverse molar ratio of average KD values, ^177Lu-PSMA-617 set to 1
T1 construct: expressed in transfected cells; host or cells: PC-3 PIP cells (PSMA-positive subline of human PC-3 prostate cancer cells), provided by Prof; Martin Pomper, Johns Hopkins
Description: Determination of the PSMA affinity was performed by saturation binding assays using PC-3 PIP cells and different concentrations of ^nat/44Sc-, ^nat/177Lu-, ^nat/68Ga-PSMA-617, or ^nat/68Ga-PSMA-11, respectively (Additional file 1).
Determination of the KD values was performed by saturation binding assays using PSMA^pos PC-3 PIP cells. After successful radiolabeling of the PSMA ligands, a 2.5-fold molar excess of the corresponding cold metal was added and the reaction mixture was incubated for another 10 min at 95 °C. Quality control was performed again after reaction of the radioligands with the “cold” metal as described in the main manuscript.
The cells were seeded in 48-well-plates (8 x 10^5 cells in 500 uL RPMI medium/well) allowing adhesion and growth overnight at 37 °C and 5% CO2. For the entire experiment, the well-plates were kept on ice. After removal of the supernatant, the cells were washed once with ice-cold PBS pH 7.4 prior to the addition of different concentrations (1 nM-2 µM) of either ^nat/44Sc-, ^nat/177Lu-, ^nat/67/68Ga-PSMA-617 or ^nat/67/68Ga-PSMA-11 in ice-cold RPMI medium without supplements. For the determination of non-specific binding, cell samples were incubated with 2-phosphonomethyl pentanedioic acid (2-PMPA, 200 μM). The well-plates were incubated for 30 min at 4 °C. Then, the supernatants were removed and the cells washed twice with ice-cold PBS followed by addition of NaOH (1 M, 600 µL) to each well. The cell suspensions were transferred to 4 mL tubes for measurement in a γ-counter (Wallac Wizard 1480, Perkin Elmer). The KD values were determined by plotting specific-binding (total binding minus unspecific binding) against the molar concentration of the added radioligands followed by nonlinear regression analysis using GraphPad Prism 7 software.

T1 sequence (Q04609 whole entry): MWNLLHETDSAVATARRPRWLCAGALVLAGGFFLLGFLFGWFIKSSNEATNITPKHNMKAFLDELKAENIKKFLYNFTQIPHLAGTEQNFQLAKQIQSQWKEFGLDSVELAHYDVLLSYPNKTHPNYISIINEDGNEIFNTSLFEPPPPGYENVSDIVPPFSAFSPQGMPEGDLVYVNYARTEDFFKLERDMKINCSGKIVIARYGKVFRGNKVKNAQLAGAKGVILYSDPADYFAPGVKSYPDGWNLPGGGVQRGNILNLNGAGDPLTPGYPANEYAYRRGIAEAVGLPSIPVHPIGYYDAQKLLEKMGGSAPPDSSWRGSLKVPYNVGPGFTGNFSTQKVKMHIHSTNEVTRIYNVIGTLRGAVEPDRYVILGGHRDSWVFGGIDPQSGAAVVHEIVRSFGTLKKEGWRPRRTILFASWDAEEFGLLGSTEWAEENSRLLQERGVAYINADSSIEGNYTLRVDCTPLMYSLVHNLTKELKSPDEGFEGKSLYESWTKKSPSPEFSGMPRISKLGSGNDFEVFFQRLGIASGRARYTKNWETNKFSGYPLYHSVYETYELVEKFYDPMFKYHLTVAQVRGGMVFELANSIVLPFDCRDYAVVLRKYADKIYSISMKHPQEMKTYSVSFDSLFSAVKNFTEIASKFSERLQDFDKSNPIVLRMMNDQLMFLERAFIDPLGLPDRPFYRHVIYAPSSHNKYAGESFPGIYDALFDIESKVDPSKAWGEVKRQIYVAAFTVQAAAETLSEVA

With `O=C([O-])CN1CCN(CC(=O)[O-])CCN(CC(=O)NCC2CCC(C(=O)NC(Cc3ccc4ccccc4c3)C(=O)NCCCCC(NC(=O)NC(CCC(=O)O)C(=O)O)C(=O)O)CC2)CCN(CC(=O)[O-])CC1.[68Ga+3]` (centres unmarked) [^68Ga-PSMA-617] the Blood ([1]; 15 min p.i.) was 6.88 ± 0.89 % IA/g, the Bone ([1]; 15 min p.i.) was 1.72 ± 0.06 % IA/g and the Heart ([1]; 15 min p.i.) was 2.61 ± 0.49 % IA/g. The Intestines ([1]; 15 min p.i.) was 1.55 ± 0.19 % IA/g, the Kidneys ([1]; 15 min p.i.) was 22.8 ± 0.81 % IA/g and the Liver ([1]; 15 min p.i.) was 4.74 ± 0.43 % IA/g. It also gave a Lung ([1]; 15 min p.i.) of 4.70 ± 0.09 % IA/g, a Muscle ([1]; 15 min p.i.) of 1.53 ± 0.24 % IA/g and a Salivary glands ([1]; 15 min p.i.) of 2.30 ± 0.37 % IA/g. For the same compound, the Spleen ([1]; 15 min p.i.) was 3.92 ± 0.28 % IA/g, the Stomach ([1]; 15 min p.i.) was 1.48 ± 0.09 % IA/g and the “PC-3 flu Tumor” value ([1]; 15 min p.i.) was 2.30 ± 0.18 % IA/g. For the same compound, the “PC-3 PIP Tumor” value ([1]; 15 min p.i.) was 28.7 ± 5.26 % IA/g, the Blood ([1]; 30 min p.i.) was 3.46 ± 0.98 % IA/g and the Bone ([1]; 30 min p.i.) was 1.00 ± 0.17 % IA/g. It also gave a Heart ([1]; 30 min p.i.) of 1.47 ± 0.34 % IA/g, an Intestines ([1]; 30 min p.i.) of 0.98 ± 0.28 % IA/g and a Kidneys ([1]; 30 min p.i.) of 15.5 ± 3.46 % IA/g. For the same compound, the Liver ([1]; 30 min p.i.) was 2.91 ± 0.65 % IA/g, the Lung ([1]; 30 min p.i.) was 2.55 ± 0.51 % IA/g and the Muscle ([1]; 30 min p.i.) was 0.80 ± 0.10 % IA/g. For the same compound, the Salivary glands ([1]; 30 min p.i.) was 1.06 ± 0.23 % IA/g, the Spleen ([1]; 30 min p.i.) was 2.50 ± 0.82 % IA/g and the Stomach ([1]; 30 min p.i.) was 1.09 ± 0.40 % IA/g. The “PC-3 flu Tumor” value ([1]; 30 min p.i.) was 1.23 ± 0.35 % IA/g, the “PC-3 PIP Tumor” value ([1]; 30 min p.i.) was 48.5 ± 8.51 % IA/g and the Blood ([1]; 2 h p.i.) was 0.14 ± 0.00 % IA/g. It also gave a Bone ([1]; 2 h p.i.) of 0.09 ± 0.02 % IA/g, a Heart ([1]; 2 h p.i.) of 0.09 ± 0.01 % IA/g and an Intestines ([1]; 2 h p.i.) of 0.12 ± 0.03 % IA/g. For the same compound, the Kidneys ([1]; 2 h p.i.) was 3.48 ± 0.18 % IA/g, the Liver ([1]; 2 h p.i.) was 1.60 ± 0.05 % IA/g and the Lung ([1]; 2 h p.i.) was 0.20 ± 0.00 % IA/g. For the same compound, the Muscle ([1]; 2 h p.i.) was 0.05 ± 0.01 % IA/g, the Salivary glands ([1]; 2 h p.i.) was 0.14 ± 0.03 % IA/g and the Spleen ([1]; 2 h p.i.) was 0.91 ± 0.14 % IA/g. For the same compound, the Stomach ([1]; 2 h p.i.) was 0.16 ± 0.11 % IA/g, the “PC-3 flu Tumor” value ([1]; 2 h p.i.) was 0.18 ± 0.03 % IA/g and the “PC-3 PIP Tumor” value ([1]; 2 h p.i.) was 55.8 ± 14.2 % IA/g. The LogD values [2] was −4.30 ± 0.10, the Kd [3] was 72 ± 29 nM and the “Relative PSMA-binding affinity” value [3] was 0.5.
`O=C([O-])CN1CCN(CC(=O)[O-])CCN(CC(=O)NCC2CCC(C(=O)N[C@@H](Cc3ccc4ccccc4c3)C(=O)NCCCC[C@H](NC(=O)N[C@@H](CCC(=O)O)C(=O)O)C(=O)O)CC2)CCN(CC(=O)[O-])CC1.[177Lu+3]` (some centres unmarked) [^177Lu-PSMA-617] showed a Blood ([1]; 15 min p.i.) of 7.28 ± 0.32 % IA/g, a Bone ([1]; 15 min p.i.) of 2.03 ± 0.10 % IA/g and a Heart ([1]; 15 min p.i.) of 2.87 ± 0.17 % IA/g. The Intestines ([1]; 15 min p.i.) was 1.64 ± 0.12 % IA/g, the Kidneys ([1]; 15 min p.i.) was 30.8 ± 4.52 % IA/g and the Liver ([1]; 15 min p.i.) was 1.63 ± 0.27 % IA/g. It also gave a Lung ([1]; 15 min p.i.) of 4.76 ± 0.55 % IA/g, a Muscle ([1]; 15 min p.i.) of 1.78 ± 0.21 % IA/g and a Salivary glands ([1]; 15 min p.i.) of 2.11 ± 0.19 % IA/g. The Spleen ([1]; 15 min p.i.) was 2.85 ± 0.38 % IA/g, the Stomach ([1]; 15 min p.i.) was 1.70 ± 0.12 % IA/g and the “PC-3 flu Tumor” value ([1]; 15 min p.i.) was 2.49 ± 0.45 % IA/g. For the same compound, the “PC-3 PIP Tumor” value ([1]; 15 min p.i.) was 32.3 ± 3.54 % IA/g, the Blood ([1]; 30 min p.i.) was 3.05 ± 0.81 % IA/g and the Bone ([1]; 30 min p.i.) was 1.07 ± 0.27 % IA/g. The Heart ([1]; 30 min p.i.) was 1.32 ± 0.28 % IA/g, the Intestines ([1]; 30 min p.i.) was 1.13 ± 0.45 % IA/g and the Kidneys ([1]; 30 min p.i.) was 22.6 ± 1.78 % IA/g. It also gave a Liver ([1]; 30 min p.i.) of 0.90 ± 0.15 % IA/g, a Lung ([1]; 30 min p.i.) of 2.51 ± 0.44 % IA/g and a Muscle ([1]; 30 min p.i.) of 0.75 ± 0.20 % IA/g. For the same compound, the Salivary glands ([1]; 30 min p.i.) was 1.01 ± 0.27 % IA/g, the Spleen ([1]; 30 min p.i.) was 1.55 ± 0.05 % IA/g and the Stomach ([1]; 30 min p.i.) was 0.98 ± 0.35 % IA/g. For the same compound, the “PC-3 flu Tumor” value ([1]; 30 min p.i.) was 1.22 ± 0.32 % IA/g, the “PC-3 PIP Tumor” value ([1]; 30 min p.i.) was 47.0 ± 3.52 % IA/g and the Bone ([1]; 2 h p.i.) was 0.12 ± 0.07 % IA/g. It also gave a Heart ([1]; 2 h p.i.) of 0.06 ± 0.00 % IA/g, an Intestines ([1]; 2 h p.i.) of 0.14 ± 0.06 % IA/g and a Kidneys ([1]; 2 h p.i.) of 3.97 ± 0.56 % IA/g. For the same compound, the Liver ([1]; 2 h p.i.) was 0.13 ± 0.02 % IA/g, the Lung ([1]; 2 h p.i.) was 0.15 ± 0.03 % IA/g and the Muscle ([1]; 2 h p.i.) was 0.04 ± 0.02 % IA/g. It also gave a Salivary glands ([1]; 2 h p.i.) of 0.10 ± 0.03 % IA/g, a Spleen ([1]; 2 h p.i.) of 0.21 ± 0.03 % IA/g and a Stomach ([1]; 2 h p.i.) of 0.08 ± 0.02 % IA/g. The “PC-3 flu Tumor” value ([1]; 2 h p.i.) was 0.13 ± 0.01 % IA/g, the “PC-3 PIP Tumor” value ([1]; 2 h p.i.) was 45.8 ± 4.02 % IA/g and the “PC-3 flu Tumor” value ([1]; 4 h p.i.) was 0.08 ± 0.01 % IA/g. The “PC-3 PIP Tumor” value ([1]; 4 h p.i.) was 56.0 ± 8.0 % IA/g, the Blood ([1]; 6 h p.i.) was 0.02 ± 0.00 % IA/g and the Bone ([1]; 6 h p.i.) was 0.05 ± 0.01 % IA/g. For the same compound, the Heart ([1]; 6 h p.i.) was 0.03 ± 0.00 % IA/g, the Intestines ([1]; 6 h p.i.) was 0.03 ± 0.00 % IA/g and the Kidneys ([1]; 6 h p.i.) was 2.47 ± 0.28 % IA/g. The Liver ([1]; 6 h p.i.) was 0.09 ± 0.01 % IA/g, the Lung ([1]; 6 h p.i.) was 0.06 ± 0.02 % IA/g and the Muscle ([1]; 6 h p.i.) was 0.02 ± 0.01 % IA/g. The Salivary glands ([1]; 6 h p.i.) was 0.04 ± 0.00 % IA/g, the Spleen ([1]; 6 h p.i.) was 0.11 ± 0.01 % IA/g and the Stomach ([1]; 6 h p.i.) was 0.05 ± 0.01 % IA/g. The “PC-3 flu Tumor” value ([1]; 6 h p.i.) was 0.06 ± 0.01 % IA/g, the “PC-3 PIP Tumor” value ([1]; 6 h p.i.) was 55.4 ± 1.67 % IA/g and the LogD values [2] was −4.18 ± 0.06. The Kd [3] was 39 ± 23 nM and the “Relative PSMA-binding affinity” value [3] was 1.0.
